Earlier results as cited in patent publication US20110246079A1, “INDIVIDUAL 5-FLUOROURACILE DOSE OPTIMIZATION IN FOLFOX TREATMENT” (Centre Regional De Lutte Contre, priority 2008, published 2011).

What was measured:
[1] = molecular target: T1, dihydropyrimidine dehydrogenase (DPD) (Homo sapiens, UniProt Q12882); settings: subject with normal DPD enzymatic activity
T1 construct: This ubiquitous enzyme is a major factor of 5-FU biodisponibility, since in a subject with normal DPD enzymatic activity; endogenous in cells; host or cells: Subject or patient in vivo (enzyme described as ubiquitous)
T1 sequence (Q12882 4-1025): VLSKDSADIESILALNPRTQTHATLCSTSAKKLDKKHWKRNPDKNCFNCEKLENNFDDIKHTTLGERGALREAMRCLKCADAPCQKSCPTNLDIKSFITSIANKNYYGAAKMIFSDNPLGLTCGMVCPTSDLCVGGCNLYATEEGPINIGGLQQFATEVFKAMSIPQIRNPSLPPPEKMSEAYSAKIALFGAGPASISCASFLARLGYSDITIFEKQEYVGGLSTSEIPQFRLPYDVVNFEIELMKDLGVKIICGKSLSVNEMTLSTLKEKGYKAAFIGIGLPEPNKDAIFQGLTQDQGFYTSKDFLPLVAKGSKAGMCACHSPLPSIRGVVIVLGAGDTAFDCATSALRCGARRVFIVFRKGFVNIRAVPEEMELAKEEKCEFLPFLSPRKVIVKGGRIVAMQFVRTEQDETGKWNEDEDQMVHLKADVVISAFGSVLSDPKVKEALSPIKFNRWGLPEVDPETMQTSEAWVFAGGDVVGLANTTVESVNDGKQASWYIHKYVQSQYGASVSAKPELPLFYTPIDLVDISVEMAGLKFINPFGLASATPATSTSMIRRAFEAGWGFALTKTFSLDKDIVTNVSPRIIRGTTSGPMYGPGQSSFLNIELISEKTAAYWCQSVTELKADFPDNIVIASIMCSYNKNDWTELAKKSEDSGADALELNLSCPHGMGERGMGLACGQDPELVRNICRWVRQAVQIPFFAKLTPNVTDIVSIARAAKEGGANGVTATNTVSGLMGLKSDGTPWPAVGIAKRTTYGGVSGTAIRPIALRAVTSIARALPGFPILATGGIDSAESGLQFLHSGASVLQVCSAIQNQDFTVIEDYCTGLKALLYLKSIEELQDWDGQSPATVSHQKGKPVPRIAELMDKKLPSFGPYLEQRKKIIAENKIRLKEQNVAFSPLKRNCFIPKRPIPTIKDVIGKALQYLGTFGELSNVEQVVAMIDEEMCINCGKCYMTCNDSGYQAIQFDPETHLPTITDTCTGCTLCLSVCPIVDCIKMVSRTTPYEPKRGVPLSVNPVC

[2] = test system: patients; settings: 5-FU treatment
[3] = test system: 5-FU metabolism; settings: in vivo

SMILES | administered 5-FU available for / metabolized by the anabolic pathway [1] [%] | death, treated patients [2] [%] | very early polyvisceral toxicity, patients [2] | severe grade 3-4 toxicity ([2]; standard doses) | time for 5-FU plasmatic levels to reach a plateau (after the beginning of the 5-FU continuous infusion) | half-life in blood (in vivo) | effect on 5-FU metabolism [3]
O=c1[nH]cc(F)c(=O)[nH]1 [5-FU, 5-fluorouracile] | 20 | 0.8 | 5-8% | 20-25% | about 1 hour | very short | –
O=C1[O][Pt]2([NH][C@@H]3CCCC[C@H]3[NH]2)[O]C1=O [oxaliplatin] | – | – | – | – | – | – | inhibits 5-FU metabolism
